Consider 1 molecule from patent US20240315992A1, “AMINOXY ACID-BASED ANTIBACTERIAL COMPOUNDS AND METHODS THEREOF” (The University of Hong Kong, priority 2023, published 2024).

Test [1] relates to virulence proteins of Staphylococcus aureus ATCC 29213. Kind of test: Secretome analysis of virulence proteins. The format is cell-based. Conditions: 1.56 μM (0.5×MIC), 1.5 hours, supernatant. As to the method: The red dots represented proteins which were annotated as “Virulence” and “Secrete/extracellular” as subcellular location by UniprotKB. The curve is derived at FDR=0.05 and s0=0.1.
S. aureus ATCC 29213 cells were sub-cultured from an overnight culture to OD595 0.1 and then cultured for 5 hours at 37° C., 250 rpm. Cells were concentrated by centrifugation (3,000×g, 4° C., 15 minutes), washed with 1×PBS and resuspended in CAMH to give OD595 1.5. […] Cells were then concentrated by centrifugation (3,000×g, 15 minutes and 6,000×g, 5 minutes). The supernatant was filtered (0.2 μm) and then concentrated by Amicon Ultra 10 KDa filter. Protein concentration was quantified by Bradford assay.
To quench the reaction, dithiothreitol (12.5 mM; 25° C., 200 rpm) was added for 30 minutes. Endoprotinase LysC was subsequently added (Enzyme: protein ratio 1:200; 25° C., 700 rpm) for 2 hours. The samples were diluted 1:5 by 50 mM ammonium bicarbonate buffer and further digested by trypsin (Enzyme: protein ratio 1:20; 37° C.) for 16 hours. The reaction was quenched by the addition of formic acid until pH reached 2-3. Samples were then submitted to the HKU proteomics and metabolomics core facility for analysis.
The peptides were desalted using C18 StageTips. Eluted peptides were analyzed with nanoelute UPLC was coupled to Bruker TimsTOF Pro mass spectrometer. […]

The subject of test [2] is MRSA Mu3 cell membrane potential. Put plainly: Membrane potential monitored by DiSC3(5). It counts as cell-based, Staphylococcus aureus. The procedure:
FIG. 11 is a line graph showing compound 8 can depolarize Staphylococcus aureus cell membrane under sub-inhibitory concentration and hyperpolarize Staphylococcus aureus cell membrane under inhibitory concentration. Membrane potential was monitored by DiSc3(5) over time (s). Extracellular buffer contained 10 mM HEPEs buffer, 5 mM glucose and 100 mM NaCl, pH 7.1. At t=100 s, 6 μL different concentration of compound 8 and 10 mM valinomycin (Vln) were added to 594 μL MRSA Mu3 pre-incubated with 0.4 μM DiSC3(5). The fluorescence signal was further monitored for 500 s. Data represented the mean±S.D. of technical triplicates.
Typically, an overnight culture of MRSA Mu3 was sub-cultured 1:100 in fresh CAMH and regrown to exponential phase. The bacteria were harvested (3,000×g, 5 min), washed, and re-suspended in a solution with 10 mM HEPEs buffer, 5 mM glucose and 100 mM KCl or 100 mM NaCl (pH 7.2). The bacteria were diluted to OD595 0.3 with the same buffer. […] Bacteria were incubated in darkness for 20 minutes or until fluorescence signal become stable. Fluorescence signal was recorded using Hitachi F-4500 Florescence Spectrometer. In a 1 mL cuvette, 594 μL bacteria incubated with DiSC3(5) were added and the fluorescence was monitored for 100 s. […] The fluorescence was monitored for further 500 s. […]

The subject of test [3] is Staphylococcus aureus Mu3. Kind of test: Antibacterial effect in combination with calcium channel blockers. The format is cell-based. Conditions: 12.5 μM compound 8 (4×MIC), dose dependent. The procedure:
Exponential phase Staphylococcus aureus Mu3 was treated with compound 8 (4×MIC) or combination with calcium channel blocker. Data were representative of mean±S.D. of four individual experiments with error bars. Statistical analysis was performed by one-way ANOVA with Dunnett's post-test to calculate p-values adjusted for multiple comparisons with initial bacteria inoculum as control condition (*p<0.05; **p<0.01; ***p<0.001).
Data were representative of mean±S.D. of four individual experiments with error bars. Statistical analysis was performed by one-way ANOVA with Dunnett's post-test to calculate p-values adjusted for multiple comparisons with initial bacteria inoculum as control condition (*p<0.05; **p<0.01; ***p<0.001).

The structures appear in SMILES notation.

Take `CC(C)C[C@H](ONC(=O)[C@@H](COCc1ccccc1)ONC(=O)c1cc(C(F)(F)F)cc(C(F)(F)F)c1)C(=O)Nc1ccccc1` [Compound 8]: in test [1], the “secretion of the virulence proteins” value is listed as “can reduce the secretion of the virulence proteins”. Further, the “cell membrane potential under inhibitory concentration” value in test [2] (inhibitory concentration) is recorded as “hyperpolarize”. In test [2] (sub-inhibitory concentration), the “cell membrane potential under sub-inhibitory concentration” value is “depolarize”. The “antibacterial effect in combination with calcium channel blocker verapamil or benidipine” value in test [3] is “calcium channel blockers can antagonize the antibacterial effect”.
